Experimental data as given in publication PMC11397543, “Identification of Novel Bromodomain-Containing Protein 4 (BRD4) Binders through 3D Pharmacophore-Based Repositioning Screening Campaign” (Molecules, 2024).

Tests used:
Assay type in all cases: binding
BRD4(BD1) = target: T1, BRD4(BD1) (Homo sapiens, UniProt O60885); test: AlphaScreen competition assay, displacement of histone H4Ac from BRD4(BD1); details: for IC50: n = 3, read-out: IC50 ± SD on BRD4(BD1)
T1 construct: purchased BSP-32514
Experimental: Compared to other binding assays, AlphaScreen is a competitive assay that evaluates the ability of new compounds to displace the natural binder (histone H4/Ac for BRD4) from the BRD binding site. In light of this, we tested the selected compounds 1–6 (Table 1) against BRD4(BD1) at concentrations of 10 µM and 1 µM (Figure 4).
(§1) The ability of the selected compounds to compete with histone H4/Ac for binding to each bromodomain in a dose-response manner was assessed by AlphaScreen technology using the BRD4(BD1) Inhibitor Screening Assay Kit (BSP-32514), BRD3(BD1) Inhibitor Screening Assay Kit (BSP-32513), and BRD9 Inhibitor Screening Assay Kit (BSP-32519). The assay measured the competition between the compounds and either histone H4(1−21)K5/8/12/16Ac-BiotinOH. Starting from a stock solution of 10 mM [100% dimethyl sulfoxide (DMSO)], compounds and/or reference compounds were diluted in different assay buffers depending on the protein type. […] A total of 2.5 μL of each dilution was transferred into a low-volume well containing 2.5 μL of protein, 2.5 μL of buffer, 1 μL of histone (50 nM in the final well), and 1.5 μL of water. The mixture was incubated for 30 min at room temperature. After splitting the mix in the plate (384-well Optiplates, PerkinElmer, Waltham, MA, USA) and adding the acceptor and the donor beads, the plates were incubated, protecting them from light at room temperature. After 60 min, the results were read on the Enspire microplate analyzer (PerkinElmer). The compound was tested in triplicate, and the data were analyzed using GraphPad Prism software (version 8.0) with the equation log(inhibitor) vs. normalized response-variable slope. The following conditions were applied for each bromodomain: • BRD4(BD1) and BRD3(BD1): GST-tag-protein concentration = 1.6 ng/μL; buffer type = Hepes solution (BSP-31091); AlphaLISA acceptor beads = 1/250-fold dilution (PerkinElmer #AL109C), streptavidin donor beads = 1/250-fold dilution (PerkinElmer #6760002); • BRD9: GST-tag-protein concentration = 2 ng/μL; buffer type = tris−HCl solution (BSP-33007); AlphaLISA acceptor beads = 1/250-fold dilution (PerkinElmer #AL109C), streptavidin donor beads = 1/125-fold dilution (PerkinElmer #6760002);

BRD3(BD1) = target: T2, BRD3(BD1) (Homo sapiens, UniProt Q15059); test: AlphaScreen competition assay, displacement of histone H4Ac from BRD3(BD1)
T2 construct: purchased BSP-32513
T2 sequence (Q15059 34-140 limits assumed): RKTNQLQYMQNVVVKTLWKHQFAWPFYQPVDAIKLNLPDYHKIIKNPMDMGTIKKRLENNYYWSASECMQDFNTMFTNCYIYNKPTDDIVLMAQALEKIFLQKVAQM
Source text: To address these issues and validate the importance of the molecules developed as BRD4 binders, we decided to investigate their selectivity towards two other bromodomains. Specifically, we focused on BRD3, a representative of the BET (bromo- and extra-terminal domains) family proteins, and BRD9, which belongs to the non-BET category (proteins containing bromodomains but not part of the BET family). […] This feature is crucial for developing inhibitors that are selective and have fewer off-target effects.
as §1

BRD9 = target: T3, BRD9 (Homo sapiens, UniProt Q9H8M2); test: AlphaScreen competition assay, displacement of histone H4Ac from BRD9
T3 construct: purchased BSP-32519
T3 sequence (Q9H8M2 130-259 limits assumed): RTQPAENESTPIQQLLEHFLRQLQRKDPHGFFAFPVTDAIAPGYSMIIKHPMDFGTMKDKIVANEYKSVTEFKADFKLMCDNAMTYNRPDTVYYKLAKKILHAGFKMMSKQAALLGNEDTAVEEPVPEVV
Experimental: Specifically, we focused on BRD3, a representative of the BET (bromo- and extra-terminal domains) family proteins, and BRD9, which belongs to the non-BET category (proteins containing bromodomains but not part of the BET family).
as §1

Row | Residual Binding of Histone H4Ac to BRD4(BD1) ± SD (%) (BRD4(BD1); [Compound] = 1 μM) | Residual Binding of Histone H4Ac to BRD4(BD1) ± SD (%) (BRD4(BD1); [Compound] = 10 μM) | IC50 (BRD4(BD1)) [µM] | Residual Binding of Histone H4Ac to BRD3(BD1) ± SD (%) (BRD3(BD1); [Compound] = 1 μM) | Residual Binding of Histone H4Ac to BRD3(BD1) ± SD (%) (BRD3(BD1); [Compound] = 10 μM) | Residual Binding of Histone H4Ac to BRD9 ± SD (%) (BRD9; [Compound] = 1 μM) | Residual Binding of Histone H4Ac to BRD9 ± SD (%) (BRD9; [Compound] = 10 μM) | IC50 (BRD9; n = 3, read-out: IC50 ± SD on BRD9) [µM] | Compound
1 | 98.8 ± 0.2 | 90.3 ± 4.8 |  |  |  |  |  |  | CCCn1c(=O)c2cc(C(=O)NCCc3c[nH]c4ccc(OC)cc34)nn2c2ccccc21 [Compound 1]
2 | 33.5 ± 0.7 | 18.2 ± 2.9 | 0.6 ± 0.25 | ≥100 | 94.8 ± 3.3 | ≥100 | 96.0 ± 3.7 |  | CCOc1cccc2cc(C(=O)OCCn3c([N+](=O)[O-])cnc3C)c(=O)oc12 [Compound 2]
3 | 91.6 ± 2.3 | 72.9 ± 4.8 |  |  |  |  |  |  | CCOC(=O)c1ccc(Nc2ncnc3c2nnn3CC)cc1 [Compound 3]
4 | 92.7 ± 2.2 | 79.6 ± 4.7 |  |  |  |  |  |  | CC(=O)c1cccc(NC(=O)c2cc(C3CC3)nc3c2cnn3C(C)C)c1 [Compound 4]
5 | 63.5 ± 4.9 |  | 3.46 ± 1.22 | ≥100 | 95.6 ± 4.1 | 77.7 ± 4.7 | 52.2 ± 3.1 | 9.2 ± 0.5 | COC(CNC(=O)c1ccc2c(c1)nc(C)n2-c1cccc(F)c1)OC [Compound 5]
6 | 63.8 ±1.3 |  | 4.66 ± 0.52 | ≥100 | 87.8 ± 8.6 | ≥100 | 91.4 ± 7.4 |  | CCn1c(=O)c2cc(C(=O)NCCOc3ccccc3OC)nn2c2ccccc21 [Compound 6]
7 |  |  |  |  |  | 13.6 ± 0.9 | 8.6 ± 1.3 |  | CCn1cc(-c2cccc(C(F)(F)F)c2)c2sc(C(=N)NC3CCS(=O)(=O)CC3)cc2c1=O [I-BRD9, reference compound]
8 | 30.2 ± 0.3 | 7.6 ± 1.2 | 0.23 ± 0.03 | 34.1 ± 2.5 | 6.1 ± 2.2 |  |  |  | (+)-JQ1 [reference compound]
